From ChEMBL document CHEMBL1152367, “Discovery and functional evaluation of diverse novel human CB(1) receptor ligands” (Bioorg Med Chem Lett, 2009) come the findings set out here.

In experiment [1] the target is T1, Cannabinoid receptor 1 (Homo sapiens, UniProt P21554). In words: biochemical. The experiment is classed as cell-based, HEK293.
In experiment [2] the target is T1, Cannabinoid receptor 1. Kind of experiment: Displacement of [3H]rimonabant from human CB1 receptor expressed in HEK293 cells assessed as signal point inhibition at 10 uM by liquid scintillation counting. The format is cell-based. Background: Displacement assays read how much labelled ligand stays bound in the presence of the test substance.
The species entered for the next experiment is Homo sapiens. In words: Selectivity ratio of Ki for human CB2 receptor to Ki for human CB1 receptor.
In another experiment the target is Cannabinoid receptor 2 (Homo sapiens, UniProt P34972). In words: Displacement of [3H]rimonabant from human CB2 receptor expressed in HEK293 cells by liquid scintillation counting. The format is cell-based.
Cannabinoid receptor 2, sequence (P34972 whole entry): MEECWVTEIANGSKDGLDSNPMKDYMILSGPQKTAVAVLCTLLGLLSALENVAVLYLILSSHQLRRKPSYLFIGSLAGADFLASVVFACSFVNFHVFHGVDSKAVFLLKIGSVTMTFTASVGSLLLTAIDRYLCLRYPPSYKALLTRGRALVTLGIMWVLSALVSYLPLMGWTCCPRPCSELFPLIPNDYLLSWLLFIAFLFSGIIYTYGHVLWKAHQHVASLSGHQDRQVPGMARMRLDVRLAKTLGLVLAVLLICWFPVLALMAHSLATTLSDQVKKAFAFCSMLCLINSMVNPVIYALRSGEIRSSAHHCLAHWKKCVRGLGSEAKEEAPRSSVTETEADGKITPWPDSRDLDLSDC
The target of experiment [3] is T1, Cannabinoid receptor 1. In words: Inverse agonist activity at human CB1 receptor by [35S]GTPgammaS incorporation assay relative to rimonabant. The arrangement: concentration or dose not given beside the values. The experiment is classed as functional. In general terms: Binding of GTPγS marks nucleotide exchange on a G protein.
Experiment [4] has as its target T1, Cannabinoid receptor 1. Kind of experiment: Inverse agonist activity at human CB1 receptor by [35S]GTPgammaS incorporation assay. The experiment is classed as functional.

T1 sequence (P21554 whole entry): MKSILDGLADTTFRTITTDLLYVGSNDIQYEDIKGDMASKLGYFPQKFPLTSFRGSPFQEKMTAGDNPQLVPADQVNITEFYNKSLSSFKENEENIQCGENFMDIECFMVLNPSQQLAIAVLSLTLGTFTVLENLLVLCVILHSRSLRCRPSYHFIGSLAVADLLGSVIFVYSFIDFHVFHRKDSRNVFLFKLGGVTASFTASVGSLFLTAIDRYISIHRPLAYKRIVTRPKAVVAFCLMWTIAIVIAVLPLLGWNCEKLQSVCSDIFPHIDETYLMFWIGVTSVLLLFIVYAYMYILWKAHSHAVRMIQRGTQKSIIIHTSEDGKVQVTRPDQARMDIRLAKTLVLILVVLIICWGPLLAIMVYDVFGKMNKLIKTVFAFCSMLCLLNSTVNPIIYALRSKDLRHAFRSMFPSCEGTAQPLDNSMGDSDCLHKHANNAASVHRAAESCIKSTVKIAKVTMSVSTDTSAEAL

On Cannabinoid receptor 1 [1], `Cc1ccc(C(=O)n2cc(/C=N/Nc3nc(N4CCOCC4)nc(N4CCOCC4)n3)c3ccccc32)cc1` yielded a Ki of 2300 nM. Besides, the inhibition at Cannabinoid receptor 1 [2] is 85%.

On Cannabinoid receptor 1 [1], `CCCNC(=O)N1CCN(c2nc(Cc3ccccc3)c3c(c2C#N)CC(C)(C)OC3)CC1` registered a Ki of 3950 nM. Also, the inhibition on Cannabinoid receptor 1 [2] came out at 81%.

Regarding `COc1cccc(N2C(C(C)=O)=NN(c3ccc(Cl)cc3)C2c2ccc(N3CCOCC3)cc2)c1` (configuration not stated), the Ki on Cannabinoid receptor 1 [1] came to 227 nM; on Cannabinoid receptor 2, 3920 nM. The Ratio Ki in the experiment listed under Homo sapiens stood at 17.3. Also, the inhibition at Cannabinoid receptor 1 [2] is 90%. At Cannabinoid receptor 1 [3], this molecule displayed an Activity of 81%. Further, at Cannabinoid receptor 1 [4], a half-maximal response (EC50) required 600 nM.

As for `CCOC(=O)CN1C(c2ccc(F)cc2)Nc2ccc(Br)cc2C1c1ccccc1` (configuration not stated), at Cannabinoid receptor 1 [1], the affinity corresponds to a Ki of 273 nM. For the same molecule, on Cannabinoid receptor 1 [2], the inhibition came to 77%.

Consider `COc1ccccc1NC(=O)C(C)Sc1nc(-c2ccc(C)cc2)nc2c1COC(C)(C)C2` (configuration not stated), for which the Ki on Cannabinoid receptor 1 [1] amounted to 264 nM; on Cannabinoid receptor 2, 10000 nM. In addition, in the experiment listed under Homo sapiens, the Ratio Ki is above 37.9. Also, the inhibition at Cannabinoid receptor 1 [2] is 85%. The molecule further gave an Activity on Cannabinoid receptor 1 [3] of 91%. This molecule also had an EC50 on Cannabinoid receptor 1 [4] of 1200 nM.

`COc1ccc(C2C(C(=O)Nc3cccc(C)n3)c3ccccc3C(=O)N2C2CCCCC2)cc1` (configuration not stated) gave an inhibitory constant (Ki) on Cannabinoid receptor 1 [1] of 2400 nM. Also, on Cannabinoid receptor 1 [2], the inhibition worked out at 69%.

As for `Cc1cc(C)c(OCC(=O)Nc2sc3c(c2C(=O)NC2CCS(=O)(=O)C2)CCCC3)c(C)c1` (configuration not stated), the Ki at Cannabinoid receptor 1 [1] came to 325 nM; at Cannabinoid receptor 2, 58 nM. In addition, the Ratio Ki in the experiment listed under Homo sapiens turned out to be 0.2. For the same molecule, on Cannabinoid receptor 1 [2], the inhibition amounted to 94%. For the same molecule, the Activity at Cannabinoid receptor 1 [3] is 60%. On Cannabinoid receptor 1 [4], this molecule came in with an EC50 of 400 nM.

Molecule `CCOC(=O)N1CC=C2C(C1)C1(C(=O)N(Cc3ccccc3)c3ccccc31)C(C#N)=C(N)C2(C#N)C#N` (configuration not stated) gave a Ki on Cannabinoid receptor 1 [1] of 1090 nM. Besides, the inhibition at Cannabinoid receptor 1 [2] worked out at 82%.

As to `CCOC(=O)N1CCN(C(=O)c2cc(-c3ccccc3Cl)nn2-c2ccc(C)cc2C)CC1`, the results for the Ki on Cannabinoid receptor 1 [1] and on Cannabinoid receptor 2 were 287 nM and 1070 nM, respectively. For the same molecule, in the experiment filed under Homo sapiens, the Ratio Ki came out at 3.7. For the same molecule, on Cannabinoid receptor 1 [2], the inhibition was 98%. The Activity on Cannabinoid receptor 1 [3] amounted to 44%. The molecule also showed an EC50 on Cannabinoid receptor 1 [4] of 200 nM.

Consider `CC(C(=O)N1c2ccccc2C(C)(c2ccc(Cl)cc2)CC1(C)C)N1C(=O)C2CCCCC2C1=O` (configuration not stated), for which the Ki at Cannabinoid receptor 1 [1] turned out to be 520 nM. Moreover, the inhibition on Cannabinoid receptor 1 [2] turned out to be 73%.

Molecule `O=C(c1ccc(-n2cnnn2)cc1)N(c1ccccc1)C1(C(=O)Nc2ccccc2)CCCCC1` had a Ki on Cannabinoid receptor 1 [1] of 1050 nM. Also, the inhibition at Cannabinoid receptor 1 [2] amounted to 71%.

As for `CC(C)N(CC(=O)N1c2ccccc2-n2cccc2C1c1ccc(F)cc1)C(=O)CC(C)(C)C` (configuration not stated), the affinity at Cannabinoid receptor 1 [1], expressed as Ki, was 1030 nM. Moreover, the inhibition at Cannabinoid receptor 1 [2] came to 64%. The molecule also registered an Activity on Cannabinoid receptor 1 [3] of 77%. On Cannabinoid receptor 1 [4], the EC50 is 1100 nM.

Turning to `CC(C)NC(=O)C(C)Sc1nnc2c3ccccc3n(Cc3ccccc3)c2n1` (configuration not stated), the Ki on Cannabinoid receptor 1 [1] is 2270 nM. Moreover, on Cannabinoid receptor 1 [2], the inhibition was determined as 86%.

For `COc1ccc(-c2cc(C(=O)N3CCN(C(C)=O)CC3)n(-c3cccc(C)c3)n2)c(OC)c1`, the affinity on Cannabinoid receptor 1 [1], expressed as Ki, was 1940 nM. Besides, the inhibition at Cannabinoid receptor 1 [2] amounted to 77%.

Turning to `COC(=O)c1c(C)oc(C)c1S(=O)(=O)N1CCN(C2c3ccccc3-c3ccccc32)CC1`, affinity at Cannabinoid receptor 1 [1] was put at a Ki of 1610 nM. For the same molecule, the inhibition on Cannabinoid receptor 1 [2] is 87%.

For `Cc1ccc(C2c3cccn3-c3ccccc3N2C(=O)CN(C(=O)C2CCCC2)C2CC2)cc1` (configuration not stated), the Ki at Cannabinoid receptor 1 [1] came out at 520 nM; on Cannabinoid receptor 2, 10000 nM. In addition, in the experiment filed under Homo sapiens, the Ratio Ki was above 19.2. Moreover, the inhibition on Cannabinoid receptor 1 [2] came out at 78%. The same molecule came in with an Activity at Cannabinoid receptor 1 [3] of 91%. For the same molecule, the EC50 on Cannabinoid receptor 1 [4] stood at 1100 nM.

For the molecule `CC(C)CN(CC(=O)N1CCc2sccc2C1c1ccc(F)cc1)C(=O)c1ccco1` (configuration not stated), the Ki at Cannabinoid receptor 1 [1] came out at 875 nM. In addition, the inhibition at Cannabinoid receptor 1 [2] is 89%. Further, the Activity on Cannabinoid receptor 1 [3] came to 105%. Also, at Cannabinoid receptor 1 [4], the EC50 was found to be 4400 nM.

Regarding `Cc1cc(-c2ccccc2)n(Cc2ccccc2)c(=O)c1S(=O)(=O)c1ccccc1`, on Cannabinoid receptor 1 [1], the Ki was 2720 nM. The inhibition on Cannabinoid receptor 1 [2] was 73%.

With `CCN(Cc1ccccc1)C(=O)c1oc2ccc(S(=O)(=O)N3CC(C)CC(C)C3)cc2c1C` (configuration not stated), in the experiment filed under Homo sapiens, the Ratio Ki was 33.7. The same molecule came in with an Activity on Cannabinoid receptor 1 [3] of 95%. The molecule also showed an EC50 on Cannabinoid receptor 1 [4] of 300 nM.

With `CC1CC(C)CN(S(=O)(=O)c2ccc(F)c(C(=O)NC(c3ccccc3)c3ccccc3)c2)C1` (configuration not stated), the inhibition constant (Ki) on Cannabinoid receptor 1 [1] was determined as 611 nM; on Cannabinoid receptor 2, 10000 nM. In the experiment filed under Homo sapiens, the Ratio Ki is above 16.4. For the same molecule, the inhibition on Cannabinoid receptor 1 [2] came out at 77%. Besides, the Activity at Cannabinoid receptor 1 [3] amounted to 50%. In addition, the EC50 on Cannabinoid receptor 1 [4] came to 500 nM.

As for `CC(C)(C)c1ccc(C(=O)N2C(C(=O)NCc3ccccn3)CSC2c2cccc(F)c2)cc1` (configuration not stated), the Ki on Cannabinoid receptor 1 [1] is 7490 nM. For the same molecule, at Cannabinoid receptor 1 [2], the inhibition worked out at 62%.

On Cannabinoid receptor 1 [1], `Cc1cccc(C)c1N(C(=O)c1ccccc1Cl)C(=O)C(c1ccc([N+](=O)[O-])cc1)N1CCOCC1` (configuration not stated) came in with an inhibition constant (Ki) of 2780 nM. Moreover, the inhibition on Cannabinoid receptor 1 [2] came to 79%.

Take `COc1ccccc1N1CCN(C(=O)C(C)Sc2nc(-c3ccccc3)cc(C(F)(F)F)n2)CC1` (configuration not stated): the affinity on Cannabinoid receptor 1 [1] corresponds to a Ki of 2310 nM. For the same molecule, on Cannabinoid receptor 1 [2], the inhibition amounted to 80%.

On Cannabinoid receptor 1 [1], `CS/C(=N\S(=O)(=O)c1ccc(-n2nc(C(F)(F)F)cc2-c2cccs2)cc1)N1CCCC1` returned a Ki of 1000 nM. The inhibition at Cannabinoid receptor 1 [2] was found to be 63%.

As to `Cc1ccc(C(C(=O)Nc2ccc3c(c2)OCCO3)N(C)C(=O)/C=C\c2ccc3c(c2)OCO3)cc1` (configuration not stated), the affinity at Cannabinoid receptor 1 [1] corresponds to a Ki of 1470 nM. In addition, on Cannabinoid receptor 1 [2], the inhibition was found to be 71%.

In the case of `COc1ccc(C2c3cccn3-c3ccccc3N2C(=O)CN(C(=O)NC(C)(C)C)C(C)C)cc1` (configuration not stated), the Ki on Cannabinoid receptor 1 [1] was 308 nM; at Cannabinoid receptor 2 it was 4950 nM. Moreover, the Ratio Ki in the experiment listed under Homo sapiens turned out to be 16.1. The inhibition at Cannabinoid receptor 1 [2] worked out at 95%. The molecule also returned an Activity on Cannabinoid receptor 1 [3] of 103%. This molecule yielded an EC50 at Cannabinoid receptor 1 [4] of 1500 nM.

Take `O=C(Nc1ccccc1Oc1ccccc1)c1ccc(S(=O)(=O)N2CCc3ccccc32)cc1`: the values for the inhibitory constant (Ki) at Cannabinoid receptor 1 [1] and at Cannabinoid receptor 2 were 256 nM and 10000 nM, respectively. In addition, the Ratio Ki in the experiment filed under Homo sapiens was above 39. Also, on Cannabinoid receptor 1 [2], the inhibition is 82%. The same molecule registered an Activity on Cannabinoid receptor 1 [3] of 62%. The molecule further came in with an EC50 at Cannabinoid receptor 1 [4] of 200 nM.

Regarding `CC1CN(c2ncnc(NC(c3ccccc3)c3ccccc3)c2[N+](=O)[O-])CC(C)O1` (configuration not stated), the Ki on Cannabinoid receptor 1 [1] worked out at 1180 nM. Further, the inhibition on Cannabinoid receptor 1 [2] is 67%.

At Cannabinoid receptor 1 [1], `Cc1ccc(Cc2nsc(N3CCCN(C(=O)Nc4c(C(C)C)cccc4C(C)C)CC3)n2)cc1` had an inhibition constant Ki of 1760 nM. For the same molecule, the inhibition on Cannabinoid receptor 1 [2] is 77%.

On Cannabinoid receptor 1 [1], `COc1ccc(C2c3ccsc3CCN2C(=O)CN(C(=O)C2CCCCC2)C(C)C)cc1` (configuration not stated) yielded a Ki of 2590 nM. Moreover, the inhibition on Cannabinoid receptor 1 [2] is 82%.

The Ki is the equilibrium dissociation constant of an inhibitor or competing ligand from its target. Broadly, the inhibition is the share of the control response that was lost under treatment. The EC50 is the concentration needed to bring the measured effect to its halfway point.
